Assay results as given in patent publication EP0313981A2, “3-(4-Chlorphenyl)-2,2-dimethyl-3-hydroxy-4-(1,2,4-triazol-1-yl)-butyronitril” (BAYER AG, priority 1987, dated 1989).
≈ marks a conversion by molar mass, not a printed value.

Legend:
Asper-gillus fumi-gatus = test: Antifungal in vitro activity (MIC), Kimmig medium; type: cell-based; conditions: Aspergillus fumigatus, inoculum 5 x 10³ Keime/ml, 28 °C, 96 h, read-out: MHK-Werte (minimale Hemmkonzentration)
Procedure: (§1) Die in-vitro-Prüfungen wurden mit Keiminokula von durchschnittlich 5 x 10³ Keimen/ml Substrat durchgeführt. Als Nährmedium diente Kimmig-Medium.
(§2) Die Bebrütungstemperatur betrug 28 °C, die Bebrütungsdauer lag bei 24 bis 96 Stunden bei Hefen und 96 Stunden bei Dermatophyten und Schimmelpilzen.

Tricho-phyton mentagr. = test: Antifungal in vitro activity (MIC), Kimmig medium; type: cell-based; conditions: Trichophyton mentagrophytes, inoculum 5 x 10³ Keime/ml, 28 °C, 96 h, read-out: MHK-Werte (minimale Hemmkonzentration)
Procedure: as §1, §2

Micro-sporum canis = test: Antifungal in vitro activity (MIC), Kimmig medium; type: cell-based; conditions: Microsporum canis, inoculum 5 x 10³ Keime/ml, 28 °C, 96 h, read-out: MHK-Werte (minimale Hemmkonzentration)
Procedure: as §1, §2

Candida-Zellen = test: Antifungal in vivo activity (oral) in mouse candidiasis; set-up: species or system Mäuse vom Typ SPF-CF₁; conditions: 2 x 5,0 mg/kg per day for 5 days; for Wirkung: mice infected i.v. with 1 x 10⁶ Candida cells, survivors on day 6 p.i.; for Wirkung (in words): mouse candidiasis
Procedure: Mäuse vom Typ SPF-CF₁ werden intravenös mit 1 x 10⁶ logarithmisch wachsenden Candida-Zellen, die in physiologischer Kochsalzlösung suspendiert wurden, infiziert, Gleichzeitig mit der Infektion werden die Tiere mit jeweils 5,0 mg/kg Körpergewicht der Präparate oral behandelt.
Die Behandlung wird 5 Tage fortgesetzt; die Tagesdosis beträgt jeweils 2 mal 5,0 mg/kg Körpergewicht.
Unbehandelte Tiere sterben 3 bis 6 Tage post infektionem. Die Überlebensrate am 6.Tag post infektionem beträgt bei unbehandelten Kontrolltieren etwa 5 %.

[1] = tested on: Candida albi-cans und sp.; test: Antifungal in vitro activity (MIC), Kimmig medium; type: cell-based, Candida albicans; conditions: inoculum 5 x 10³ Keime/ml, 28 °C, 24 to 96 h, read-out: MHK-Werte (minimale Hemmkonzentration)
Procedure: as §1, §2

[2] = tested on: Trichophyton mentagrophytes; test: Antimicrobial in vivo activity (oral) in experimental guinea pig trichophytosis; set-up: species or system Meerschweinchen der Rasse Pirbright-white; key to Wirkung: +++++: = sehr gute Wirkung = keine Infektionszeichen am 12. bis 15. Tag p.i.; ++++: = gute Wirkung = geringe Rötung, vereinzelt Schuppen; +++: = Wirkung = Rötung, Schuppen ohne Haarausfall; ++: = schwache Wirkung = Rötung, Schuppen, Haaraus-fall; +: = Spurwirkung = flächiger Haarausfall, entzündliche Hautreaktion; k.w.: = keine Wirkung = kein Unterschied zur unbehandelten Kontrolle; conditions: 1 x 2,5 mg/kg per day for 10 days; for Wirkung (in words): guinea pig trichophytosis; for Wirkung: guinea pigs infected on the back with Trichophyton mentagrophytes, signs of infection day 12 to 15 p.i.
Procedure: Weiße Meerschweinchen der Rasse Pirbright-white werden auf dem geschorenen, nicht skarifizierten Rücken mit einer Mikro- und Makrokonidien-Suspension von Trichophyton mentagrophytes infiziert.
Die infizierten Tiere werden beginnend mit dem Tag der Infektion 1 x täglich mit 2,5 mg/kg Körpergewicht der Präparate oral behandelt. Die Behandlung wird 10 Tage fortgesetzt; die Tagesdosis beträgt jeweils 1 mal 2,5 mg/kg Körpergewicht.
Bei unbehandelten Tieren entwickelt sich innerhalb von 12 Tagen p.i. das typische Bild einer Dermatophytose mit Rötung, Schuppung und Haarausfall bis zum totalen Integument-Defekt an der Infektionsstelle.

Toru-lopsis gla-brata = test: Antifungal in vitro activity (MIC), Kimmig medium; type: cell-based, Torulopsis glabrata; conditions: Nakaseomyces glabratus, inoculum 5 x 10³ Keime/ml, 28 °C, 24 to 96 h, read-out: MHK-Werte (minimale Hemmkonzentration)
Procedure: as §1, §2

SMILES | MIC (Asper-gillus fumi-gatus) | MIC (Tricho-phyton mentagr.) | MIC (Micro-sporum canis) | Wirkung (Candida-Zellen) | Wirkung (in words) (Candida-Zellen) | MIC [1] | Wirkung (in words) [2] | Wirkung [2] | MIC (Toru-lopsis gla-brata)
CC(C#N)C(O)(Cn1cncn1)c1ccc(Cl)cc1 (stereo not drawn) [(A), 3-(4-Chlorphenyl)-3-hydroxy-2-methyl-4-(1,2,4-triazol-1-yl)-butyronitril] | 64 µg/mL (≈ 231 µM) | 32 µg/mL (≈ 116 µM) | 32 µg/mL (≈ 116 µM) | k.w. | keine Wirkung | 16 to 32 µg/mL (≈ 57.8 to 116 µM) | keine Wirkung | k.w. | 64 µg/mL (≈ 231 µM)
CC(C)(C#N)C(O)(Cn1cncn1)c1ccc(Cl)cc1 (stereo not drawn) [(I), 3-(4-Chlorphenyl)-2,2-dimethyl-3-hydroxy-4-(1,2,4-triazol-1-yl)-butyronitril] | 64 µg/mL (≈ 220 µM) | 4 to 8 µg/mL (≈ 13.8 to 27.5 µM) | 4 to 8 µg/mL (≈ 13.8 to 27.5 µM) | ++++ (= gute Wirkung = 80 % Überlebende am 6.Tag.p.i.) | gute Wirkung | 4 to 8 µg/mL (≈ 13.8 to 27.5 µM) | gute Wirkung | ++++ | 32 to 64 µg/mL (≈ 110 to 220 µM)
